Test [1] concerns the target T1, Mitogen-activated protein kinase kinase kinase 2 (Homo sapiens) (UniProt Q9Y2U5).
T1 sequence (whole entry): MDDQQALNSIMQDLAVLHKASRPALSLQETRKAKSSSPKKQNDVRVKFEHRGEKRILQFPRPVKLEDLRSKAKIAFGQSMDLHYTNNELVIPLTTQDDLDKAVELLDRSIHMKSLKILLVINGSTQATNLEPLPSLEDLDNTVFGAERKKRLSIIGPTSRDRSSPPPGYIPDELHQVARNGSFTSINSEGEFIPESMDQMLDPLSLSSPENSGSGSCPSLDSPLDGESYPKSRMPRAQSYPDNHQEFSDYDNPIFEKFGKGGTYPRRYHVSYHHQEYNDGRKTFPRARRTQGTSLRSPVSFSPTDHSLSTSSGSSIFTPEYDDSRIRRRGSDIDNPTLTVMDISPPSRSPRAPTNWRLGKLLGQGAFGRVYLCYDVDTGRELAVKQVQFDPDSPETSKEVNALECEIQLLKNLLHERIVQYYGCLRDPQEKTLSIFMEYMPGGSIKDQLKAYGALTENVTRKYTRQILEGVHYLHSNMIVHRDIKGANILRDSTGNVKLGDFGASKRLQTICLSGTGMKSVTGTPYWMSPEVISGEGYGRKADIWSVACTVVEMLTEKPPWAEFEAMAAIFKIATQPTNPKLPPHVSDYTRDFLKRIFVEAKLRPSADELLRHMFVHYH
The test is described as follows: Inhibition of MEKK2 (unknown origin) at 10 uM after 120 mins P33 radiolabeled kinase activity assay.

For a further test, the species on record is Homo sapiens. The test is described as follows: Inhibition of PKCbeta2 (unknown origin) at 10 uM after 120 mins P33 radiolabeled kinase activity assay.
The target in test [2] is T2, Inhibitor of nuclear factor kappa-B kinase subunit alpha (Homo sapiens) (UniProt O15111).
T2 sequence (whole entry): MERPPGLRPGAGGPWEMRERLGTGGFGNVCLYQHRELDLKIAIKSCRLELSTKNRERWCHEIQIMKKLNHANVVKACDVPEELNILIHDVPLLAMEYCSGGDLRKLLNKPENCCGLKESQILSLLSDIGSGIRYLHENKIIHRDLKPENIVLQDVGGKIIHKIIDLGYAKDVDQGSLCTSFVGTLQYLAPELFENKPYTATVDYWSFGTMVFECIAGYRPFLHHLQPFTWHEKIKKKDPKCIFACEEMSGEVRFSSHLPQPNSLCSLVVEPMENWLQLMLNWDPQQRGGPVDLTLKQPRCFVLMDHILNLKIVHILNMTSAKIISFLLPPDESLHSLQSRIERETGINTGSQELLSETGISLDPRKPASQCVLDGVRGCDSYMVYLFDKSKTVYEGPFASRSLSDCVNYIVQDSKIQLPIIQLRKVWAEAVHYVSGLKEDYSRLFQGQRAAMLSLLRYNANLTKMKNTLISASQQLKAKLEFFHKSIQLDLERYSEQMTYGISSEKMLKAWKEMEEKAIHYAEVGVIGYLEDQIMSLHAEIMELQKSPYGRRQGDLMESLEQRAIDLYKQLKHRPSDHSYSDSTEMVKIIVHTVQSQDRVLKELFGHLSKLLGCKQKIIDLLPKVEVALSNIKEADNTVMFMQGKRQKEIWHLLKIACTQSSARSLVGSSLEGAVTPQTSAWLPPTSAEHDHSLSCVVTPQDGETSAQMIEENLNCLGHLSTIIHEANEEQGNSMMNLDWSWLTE
The test is described as follows: Inhibition of IKKalpha (unknown origin) at 10 uM after 120 mins P33 radiolabeled kinase activity assay.

In test [3] the target is Cyclin-dependent kinase 18 (Homo sapiens) (UniProt Q07002). The test is described as follows: Inhibition of PCTK3 (unknown origin) at 10 uM after 120 mins P33 radiolabeled kinase activity assay.
Test [4] concerns the target T3, Tyrosine-protein kinase ZAP-70 (Homo sapiens) (UniProt P43403).
T3 sequence (whole entry): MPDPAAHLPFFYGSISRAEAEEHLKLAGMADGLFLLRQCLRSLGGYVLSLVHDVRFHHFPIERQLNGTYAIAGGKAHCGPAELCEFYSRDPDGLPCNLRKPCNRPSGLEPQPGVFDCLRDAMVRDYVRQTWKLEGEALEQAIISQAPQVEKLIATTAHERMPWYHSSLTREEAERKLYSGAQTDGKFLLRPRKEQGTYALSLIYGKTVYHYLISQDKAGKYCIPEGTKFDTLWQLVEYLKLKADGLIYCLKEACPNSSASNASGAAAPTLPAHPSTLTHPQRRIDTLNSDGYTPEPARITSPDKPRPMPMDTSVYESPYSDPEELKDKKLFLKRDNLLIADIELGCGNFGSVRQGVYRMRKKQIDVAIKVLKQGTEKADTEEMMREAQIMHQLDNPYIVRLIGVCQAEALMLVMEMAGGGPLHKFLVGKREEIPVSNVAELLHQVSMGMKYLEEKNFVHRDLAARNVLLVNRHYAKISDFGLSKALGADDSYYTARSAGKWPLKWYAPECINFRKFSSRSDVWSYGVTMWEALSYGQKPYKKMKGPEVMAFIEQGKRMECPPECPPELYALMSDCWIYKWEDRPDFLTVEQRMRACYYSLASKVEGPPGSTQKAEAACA
The test is described as follows: Inhibition of ZAP70 (unknown origin) at 10 uM after 120 mins P33 radiolabeled kinase activity assay.

Test [5] has as its target Hepatocyte growth factor receptor (Homo sapiens) (UniProt P08581). In words: Inhibition of c-MET (unknown origin) at 10 uM after 120 mins P33 radiolabeled kinase activity assay.
The target of test [6] is Mitogen-activated protein kinase kinase kinase kinase 2 (Homo sapiens) (UniProt Q12851). The test is described as follows: Inhibition of GCK (unknown origin) at 10 uM after 120 mins P33 radiolabeled kinase activity assay.
Sequence of Mitogen-activated protein kinase kinase kinase kinase 2 (Homo sapiens) (Q12851 whole entry, looked up): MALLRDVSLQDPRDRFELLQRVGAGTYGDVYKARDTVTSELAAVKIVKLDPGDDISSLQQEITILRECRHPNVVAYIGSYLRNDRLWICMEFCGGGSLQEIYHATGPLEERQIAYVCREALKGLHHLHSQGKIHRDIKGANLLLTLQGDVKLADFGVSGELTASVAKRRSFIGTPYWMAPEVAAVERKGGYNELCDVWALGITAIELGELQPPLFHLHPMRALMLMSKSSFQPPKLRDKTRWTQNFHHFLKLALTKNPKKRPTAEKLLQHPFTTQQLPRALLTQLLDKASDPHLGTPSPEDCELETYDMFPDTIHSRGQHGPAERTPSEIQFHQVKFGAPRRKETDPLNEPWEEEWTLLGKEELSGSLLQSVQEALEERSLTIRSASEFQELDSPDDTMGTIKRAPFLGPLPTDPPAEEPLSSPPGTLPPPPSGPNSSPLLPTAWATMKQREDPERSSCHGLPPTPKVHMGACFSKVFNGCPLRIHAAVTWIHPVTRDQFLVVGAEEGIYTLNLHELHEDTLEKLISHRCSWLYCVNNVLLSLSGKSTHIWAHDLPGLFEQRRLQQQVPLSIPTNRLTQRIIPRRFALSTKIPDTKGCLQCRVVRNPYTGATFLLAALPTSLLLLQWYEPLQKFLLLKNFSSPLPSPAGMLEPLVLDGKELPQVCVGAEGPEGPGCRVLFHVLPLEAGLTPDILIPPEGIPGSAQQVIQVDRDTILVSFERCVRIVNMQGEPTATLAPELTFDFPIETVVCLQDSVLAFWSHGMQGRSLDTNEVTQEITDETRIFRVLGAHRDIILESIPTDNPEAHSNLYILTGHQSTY

Sequence of Hepatocyte growth factor receptor (Homo sapiens) (P08581 whole entry): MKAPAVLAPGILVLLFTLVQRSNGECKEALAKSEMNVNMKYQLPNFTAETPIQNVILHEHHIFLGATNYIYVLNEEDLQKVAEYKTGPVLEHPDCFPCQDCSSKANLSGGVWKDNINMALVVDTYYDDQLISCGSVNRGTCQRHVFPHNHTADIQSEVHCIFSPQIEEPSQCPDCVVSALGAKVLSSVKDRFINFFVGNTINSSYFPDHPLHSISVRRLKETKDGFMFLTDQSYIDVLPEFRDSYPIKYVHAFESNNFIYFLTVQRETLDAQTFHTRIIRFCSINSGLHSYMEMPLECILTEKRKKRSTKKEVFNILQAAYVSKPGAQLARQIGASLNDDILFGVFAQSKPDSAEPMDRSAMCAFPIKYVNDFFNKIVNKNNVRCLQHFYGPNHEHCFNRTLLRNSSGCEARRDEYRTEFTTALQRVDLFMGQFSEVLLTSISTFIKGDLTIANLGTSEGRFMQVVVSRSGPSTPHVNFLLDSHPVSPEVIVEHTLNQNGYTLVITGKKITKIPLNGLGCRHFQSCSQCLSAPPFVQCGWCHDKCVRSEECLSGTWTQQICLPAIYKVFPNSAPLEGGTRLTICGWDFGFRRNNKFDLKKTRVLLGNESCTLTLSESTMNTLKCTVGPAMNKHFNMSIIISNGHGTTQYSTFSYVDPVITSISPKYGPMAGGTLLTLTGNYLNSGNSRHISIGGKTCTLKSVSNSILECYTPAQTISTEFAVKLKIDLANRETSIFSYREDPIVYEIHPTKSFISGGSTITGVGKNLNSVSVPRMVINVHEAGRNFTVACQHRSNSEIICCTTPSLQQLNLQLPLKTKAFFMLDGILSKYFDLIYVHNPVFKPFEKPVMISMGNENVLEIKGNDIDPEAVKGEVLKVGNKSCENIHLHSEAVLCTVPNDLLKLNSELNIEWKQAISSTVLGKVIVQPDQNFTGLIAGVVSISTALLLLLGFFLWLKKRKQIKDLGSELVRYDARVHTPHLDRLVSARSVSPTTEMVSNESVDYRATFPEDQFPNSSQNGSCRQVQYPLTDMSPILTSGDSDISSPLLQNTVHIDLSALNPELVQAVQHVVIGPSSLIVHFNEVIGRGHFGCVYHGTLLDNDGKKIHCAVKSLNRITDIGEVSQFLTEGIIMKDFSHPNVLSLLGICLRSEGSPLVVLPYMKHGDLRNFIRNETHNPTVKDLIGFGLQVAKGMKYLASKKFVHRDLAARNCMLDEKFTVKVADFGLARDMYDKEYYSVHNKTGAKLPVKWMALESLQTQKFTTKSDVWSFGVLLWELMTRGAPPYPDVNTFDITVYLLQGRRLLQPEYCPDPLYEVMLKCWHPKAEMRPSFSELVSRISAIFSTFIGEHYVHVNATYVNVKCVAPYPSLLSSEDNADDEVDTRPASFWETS
Sequence of Cyclin-dependent kinase 18 (Homo sapiens) (Q07002 whole entry): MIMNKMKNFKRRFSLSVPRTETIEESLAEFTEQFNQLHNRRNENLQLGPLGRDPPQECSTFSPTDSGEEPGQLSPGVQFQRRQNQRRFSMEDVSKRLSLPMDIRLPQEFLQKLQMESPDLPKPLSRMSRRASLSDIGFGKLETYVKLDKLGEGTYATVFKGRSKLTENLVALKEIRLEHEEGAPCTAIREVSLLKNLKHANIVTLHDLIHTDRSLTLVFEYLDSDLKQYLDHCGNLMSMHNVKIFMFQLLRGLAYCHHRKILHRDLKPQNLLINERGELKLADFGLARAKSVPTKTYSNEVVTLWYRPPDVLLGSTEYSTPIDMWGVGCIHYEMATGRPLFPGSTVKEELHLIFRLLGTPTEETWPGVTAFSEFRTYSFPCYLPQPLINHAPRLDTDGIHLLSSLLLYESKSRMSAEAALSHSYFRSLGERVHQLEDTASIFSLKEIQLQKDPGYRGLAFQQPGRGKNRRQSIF

Turning to `CS(=O)(=O)c1cccc(Nc2nccc(-c3sc(N4CCOCC4)nc3-c3cccc(NS(=O)(=O)c4c(F)cccc4F)c3)n2)c1`, the inhibition is 55% in test [1]; 9.1% in the test listed under Homo sapiens; 3.48% in test [2]; 27.3% in test [3]; -0.68% in test [4]; 16.8% in test [5]. The inhibition in test [6] was -0.78%.
Turning to `CC(C)(C)c1cc(NC(=O)Nc2ccc(Oc3ccncc3)cc2)no1`, the inhibition is 23.3% in test [1]; 9.88% in the test filed under Homo sapiens; 11.2% in test [2]; 92.2% in test [3]; -5.86% in test [4]; 92.4% in test [5]. In addition, the inhibition in test [6] came to 57.4%.
Turning to `COCCNC(=O)c1ccc2c(c1)nc(-c1cnc(-c3ccc(Cl)cc3)[nH]1)n2CCOC`, the inhibition in test [1] was 16.7%; in the test filed under Homo sapiens it was 31.5%; in test [2], 2.39%; in test [3], -6.38%; in test [4], 0.28%; in test [5], 10.9%. Moreover, the inhibition in test [6] was -3.21%.

Source of the values: ChEMBL document CHEMBL3627608, “Crystal structures of human RIP2 kinase catalytic domain complexed with ATP-competitive inhibitors: Foundations for understanding inhibitor selectivity” (Bioorg Med Chem, 2015).
